In PubChem BioAssay (NCI):
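Interpolation was linear, between the two tested concentrations surrounding the appropriate level; five concentrations were tested over 48 hours in 96-well plates. The concentration for 50% growth inhibition is given as GI50. At the TGI there is no net growth.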

Columns and labels:
Test in all cases: growth of human tumour cells (NCI), 48 h
[1] = test system: HOP-62 NSCLC
[2] = test system: HOP-92 NSCLC
[3] = test system: K-562 leukemia
[4] = test system: KM12 colon
[5] = test system: MOLT-4 leukemia
[6] = test system: NCI-H460 lung
[7] = test system: OVCAR-3 ovarian
[8] = test system: PC-3 prostate
[9] = test system: SK-MEL-28 melanoma
[10] = test system: U251 CNS

| SMILES | TGI [1] | TGI [2] | TGI [3] | TGI [4] | TGI [5] | TGI [6] | TGI [7] | TGI [8] | TGI [9] | TGI [10] | GI50 [1] | GI50 [2] | GI50 [3] | GI50 [4] | GI50 [5] | GI50 [6] | GI50 [7] | GI50 [8] | GI50 [9] | GI50 [10] |
| --- | --- | --- | --- | --- | --- | --- | --- | --- | --- | --- | --- | --- | --- | --- | --- | --- | --- | --- | --- | --- |
| COc1cc(C2c3cc4c(cc3C(O)C3CCC(=O)N23)OCO4)cc(OC)c1OC (stereo not given) | > 100 µM | > 100 µM | > 100 µM | > 100 µM | > 100 µM | > 100 µM | > 100 µM | > 100 µM | > 100 µM | 82.8 µM | – | – | – | – | – | – | – | – | – | – |
| O=C1Cc2c(-c3ccc(Cl)cc3)cc(-c3ccccc3)nc2-c2ccccc2N1 | 53.3 µM | 14.6 µM | > 100 µM | > 100 µM | > 76.5 µM | 10.7 µM | 27.1 µM | > 100 µM | 34.8 µM | 17.8 µM | – | – | – | – | – | – | – | – | – | – |
| O=S(=O)(c1cc(Cl)ccc1Cl)N1CCN(S(=O)(=O)c2cc(Cl)ccc2Cl)CC1 | > 100 µM | > 100 µM | > 100 µM | > 100 µM | > 100 µM | > 100 µM | > 100 µM | > 100 µM | > 100 µM | > 100 µM | – | – | – | – | – | – | – | – | – | – |
| CCN(CC)CCCCCCCCNc1c2ccc(Cl)cc2nc2ccc(OC)cc12 | 3.13 µM | 3.31 µM | 2.23 µM | 3.92 µM | 4.68 µM | 2.56 µM | 4.33 µM | 4.06 µM | 3.63 µM | 2.97 µM | 1.4 µM | 1.39 µM | 0.376 µM | 1.42 µM | 0.951 µM | 0.883 µM | 1.91 µM | 1.64 µM | 1.95 µM | 1.38 µM |
| Cc1cc(O)c(C(C)C)cc1NC(=O)Nc1cccc2ccccc12 | 30.9 µM | 40.8 µM | > 100 µM | 38.8 µM | > 100 µM | 41.4 µM | 40.2 µM | 29.2 µM | 55.8 µM | 31 µM | – | – | – | – | – | – | – | – | – | – |
| Brc1ccc2c(-c3nc(-c4c[nH]c5ccccc45)cs3)c[nH]c2c1 | > 100 µM | > 100 µM | > 100 µM | > 47.3 µM | > 87 µM | > 100 µM | > 100 µM | > 91.2 µM | > 93.6 µM | > 100 µM | – | – | – | – | – | – | – | – | – | – |
| Oc1nc(N/N=C/c2c[nH]c3ccccc23)[nH]c1/C=C1\C=Nc2ccccc21 | 80.9 µM | 36.9 µM | 27.8 µM | 44.8 µM | 22.3 µM | > 100 µM | 29.6 µM | 32 µM | 54.1 µM | 32.3 µM | – | – | – | – | – | – | – | – | – | – |
| C/C(O)=C/c1nc2ccccc2nc1/C=C(/C)O | 67.1 µM | 66.2 µM | 81 µM | 57.3 µM | 46.5 µM | 34.4 µM | 40.7 µM | > 100 µM | > 100 µM | 50.9 µM | – | – | – | – | – | – | – | – | – | – |
| O=C(Nc1ccccc1)c1cc2c(cc1Cl)Sc1nccn1S2(=O)=O | > 59.8 µM | 18.5 µM | > 100 µM | 54.4 µM | > 69 µM | > 60.6 µM | 59.3 µM | > 70.1 µM | 46.9 µM | > 71.7 µM | – | – | – | – | – | – | – | – | – | – |
| c1ccc2c(c1)c1c(n2CCOCCN2CCCCC2)CCCC1 | 29 µM | 22.3 µM | 26.7 µM | 26.7 µM | 26.7 µM | 28.2 µM | 21.7 µM | 22.2 µM | 58 µM | 32.7 µM | – | – | – | – | – | – | – | – | – | – |
| O=S(=O)(c1ccccc1)n1c(C(O)c2ccncc2)cc2ccccc21 (stereo not given) | > 100 µM | > 100 µM | > 100 µM | > 100 µM | > 100 µM | > 100 µM | > 100 µM | > 100 µM | > 100 µM | > 100 µM | – | – | – | – | – | – | – | – | – | – |
| CN(Cc1c2ccccc2cc2ccccc12)S(=O)(=O)c1ccc(-c2c3nc(c(-c4ccc(S(=O)(=O)N(C)Cc5c6ccccc6cc6ccccc56)cc4)c4ccc([nH]4)c(-c4ccc(S(=O)(=O)N(C)Cc5c6ccccc6cc6ccccc56)cc4)c4nc(c(-c5ccc(S(=O)(=O)N(C)Cc6c7ccccc7cc7ccccc67)cc5)c5ccc2[nH]5)C=C4)C=C3)cc1 | 84.6 µM | 83.4 µM | > 100 µM | > 100 µM | > 100 µM | > 100 µM | > 100 µM | > 100 µM | > 100 µM | > 100 µM | – | – | – | – | – | – | – | – | – | – |
| CC(=O)N1N=C(c2c(O)ccc3ccccc23)CC1C(=O)c1ccco1 (stereo not given) | > 100 µM | > 100 µM | 49.2 µM | > 100 µM | 60.1 µM | > 100 µM | 44 µM | > 100 µM | > 100 µM | > 100 µM | – | – | – | – | – | – | – | – | – | – |
| CCCC1NC(C#N)(C#N)C(CCC)NC1(C#N)C#N (stereo not given) | > 100 µM | > 32.4 µM | > 77.6 µM | > 65.9 µM | 1.99 µM | > 100 µM | 29.1 µM | > 88.7 µM | > 100 µM | > 100 µM | – | – | – | – | – | – | – | – | – | – |
| [O-][n+]1onc2c3nn(-c4ccccc4)nc3ccc21 | > 100 µM | > 100 µM | > 100 µM | 48.5 µM | > 100 µM | > 100 µM | 72 µM | > 100 µM | > 100 µM | > 100 µM | – | – | – | – | – | – | – | – | – | – |
| CC/C(Cl)=N\OC(=O)Nc1ccc(OC)cc1 | 30.3 µM | 5.98 µM | > 100 µM | 31.6 µM | 5.59 µM | 44.9 µM | 10.7 µM | 29.5 µM | 15.1 µM | > 57.2 µM | – | – | – | – | – | – | – | – | – | – |
